Test results reported in patent publication US9221810B2, “Substituted bicyclic aromatic compounds as S-nitrosoglutathione reductase inhibitors” (Nivalis Therapeutics, Inc., priority 2010, dated 2015).

Columns and labels:
[1] = tested on: mouse model of ovalbumin (OVA)-induced asthma; assay: Mouse model of ovalbumin (OVA)-induced asthma: MCh-induced AHR (Penh) and eosinophil infiltrate in BALF; type: in vivo; settings: single IV dose of 10 mg/kg at 24 h prior to assessment
Experimental: A mouse model of ovalbumin (OVA)-induced asthma was used to screen GSNOR inhibitors for efficacy against methacholine (MCh)-induced bronchoconstriction/airway hyper-responsiveness. This is a widely used and well characterized model that presents with an acute, allergic asthma phenotype with similarities to human asthma. Efficacy of GSNOR inhibitors was assessed using a protocol in which GSNOR inhibitors were administered after OVA sensitization and airway challenge, and prior to challenge with MCh. Bronchoconstriction in response to challenge with increasing doses of MCh was assessed using whole body plethysmography (Penh; Buxco). The amount of eosinophil infiltrate into the bronchoaveolar lavage fluid (BALF) was also determined as a measure of lung inflammation. The effects of GSNOR inhibitors were compared to vehicles and to Combivent (inhaled; IH) as the positive control.
OVA (500 μg/ml) in PBS was mixed with equal volumes of 10% (w/v) aluminum potassium sulfate in distilled water and incubated for 60 min. at room temperature after adjustment to pH 6.5 using 10 N NaOH. After centrifugation at 750×g for 5 min, the OVA/alum pellet was resuspended to the original volume in distilled water. Mice received an intraperitoneal (IP) injection of 100 μg OVA (0.2 mL of 500 μg/mL in normal saline) complexed with alum on day 0. Mice were anesthetized by IP injection of a 0.2-mL mixture of ketamine and xylazine (0.44 and 6.3 mg/mL, respectively) in normal saline and were placed on a board in the supine position. Two hundred fifty micrograms (100 μl of a 2.5 mg/ml) of OVA (on day 8) and 125 μg (50 μl of 2.5 mg/ml) OVA (on days 15, 18, and 21) were placed on the back of the tongue of each animal.
In vivo airway responsiveness to methacholine was measured 24 h after the last OVA challenge in conscious, freely moving, spontaneously breathing mice with whole body plethysmography using a Buxco chamber (Wilmington, N.C.). […] The degree of bronchoconstriction was expressed as enhanced pause (Penh), a calculated dimensionless value, which correlates with the measurement of airway resistance, impedance, and intrapleural pressure in the same mouse. Penh readings were taken and averaged for 4 min. after each nebulization challenge. Penh is calculated as follows: Penh=[(Te/Tr−1)×(PEF/PIF)], where Te is expiration time, Tr is relaxation time, PEF is peak expiratory flow, and PIF is peak inspiratory flow×0.67 coefficient. […]
After measurement of airway hyper-reactivity, the mice were exsanguinated by cardiac puncture, and then BALF was collected from either both lungs or from the right lung after tying off the left lung at the mainstem bronchus. Total BALF cells were counted from a 0.05 mL aliquot, and the remaining fluid was centrifuged at 200×g for 10 min at 4° C. […]

[2] = Mouse pharmacokinetic (PK) study; type: in vivo, male BALB/c mice; settings: male, BALB/c, plasma, po, 10 mg/kg, IV 2 mg/kg, read-out: oral bioavailability (% F)
Description: The mouse was used to determine the pharmacokinetics of compounds of the invention. This species is widely used to assess the bioavailability of compounds by administering both oral (PO) and intravenous (IV) test articles. Efficacy of the compounds of the invention was compared by assessing plasma exposure in male BALB/c mice either via IV or PO administration at the times of peak activity.
Compounds of the invention were reconstituted in a phosphate buffered saline (PBS)/10% Solutol (HS 15) clear solution resulting in a concentration of 0.2 mg/mL and administered to mice (2 mg/kg) as a single IV dose. Animals were dosed via the lateral tail vein. Blood samples were collected at designated time points (0.083, 0.25, 0.5, 1, 2, 4, 8, 16, 24 hours) by cardiac puncture under isoflurane anesthesia (up to 1 mL blood per animal). The blood was collected into tubes containing Li-Heparin. The blood samples were kept on ice until centrifugation within approximately 30 minutes of collection. The plasma was transferred into labeled polypropylene tubes and frozen at −70° C. until analyzed by LC/MS/MS.
The compounds of the invention were reconstituted in 40% Propylene Glycol/40% Propylene Carbonate/20% of a 5% Sucrose clear solution resulting in a concentration of 2 mg/mL and administered to mice (10 mg/kg) as a single oral dose via gavage. Blood samples were collected at 0.25, 0.5, 1, 2, 4, 8, 12, 16, 20 and 24 hours post dose by cardiac puncture under isoflurane anesthesia. The blood was collected in tubes containing Li-Heparin. […] The plasma was transferred into labeled polypropylene tubes and frozen at −70° C. until analyzed by LC/MS/MS.
Plasma samples at each timepoint were analyzed using a LC-MS/MS with a lower limit of quantification (LLOQ) of 1 ng/mL. Plasma was analyzed to determine the amount of the compound of the invention in each sample and regression curves generated for each compounds of the invention in the relevant matrixes. […]
In addition to the above PK parameters, bioavailability (% F) was calculated.

SMILES: Oc1ccc2nc(-c3ccc(-c4nnn[nH]4)cc3)ccc2c1 [Example 4, 2-(4-(1H-tetrazol-5-yl)phenyl)quinolin-6-ol]
- decrease of eosinophil infiltration into BALF [1]: 20 % of vehicle control
- decrease of MCh-induced AHR ([1]; p<0.05): 19 % of vehicle control
- bioavailability [2]: > 9%
